In PubChem BioAssay (NCI):
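In this assay, cells in 96-well plates receive the compound at five concentrations for 48 hours. Endpoints are linearly interpolated between the surrounding concentrations. The concentration for full growth arrest is given as TGI.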

Assays:
Assay in all cases: growth of human tumour cells (NCI), 48 h
MALME-3M melanoma = system: MALME-3M melanoma
MOLT-4 leukemia = system: MOLT-4 leukemia
U251 CNS = system: U251 CNS
SF-295 CNS = system: SF-295 CNS
SK-MEL-5 melanoma = system: SK-MEL-5 melanoma
SN12C renal = system: SN12C renal
M14 melanoma = system: M14 melanoma
SW-620 colon = system: SW-620 colon
MDA-MB-231 breast = system: MDA-MB-231 breast
SF-268 CNS = system: SF-268 CNS
HS 578T breast = system: HS 578T breast
NCI-H460 lung = system: NCI-H460 lung
DU-145 prostate = system: DU-145 prostate
RPMI-8226 leukemia = system: RPMI-8226 leukemia
SNB-19 CNS = system: SNB-19 CNS
NCI/ADR-RES ovarian = system: NCI/ADR-RES ovarian
HCT-15 colon = system: HCT-15 colon
LOX IMVI melanoma = system: LOX IMVI melanoma
OVCAR-8 ovarian = system: OVCAR-8 ovarian
A549 NSCLC = system: A549 NSCLC
HCT-116 colon = system: HCT-116 colon
HCC-2998 colon = system: HCC-2998 colon
MDA-N = system: MDA-N
COLO 205 colon = system: COLO 205 colon
T-47D breast = system: T-47D breast
SK-MEL-2 melanoma = system: SK-MEL-2 melanoma
UACC-62 melanoma = system: UACC-62 melanoma
MCF7 breast = system: MCF7 breast
UO-31 renal = system: UO-31 renal
BT-549 breast = system: BT-549 breast
OVCAR-4 ovarian = system: OVCAR-4 ovarian
786-0 renal = system: 786-0 renal
IGROV1 ovarian = system: IGROV1 ovarian
SNB-75 CNS = system: SNB-75 CNS
SK-MEL-28 melanoma = system: SK-MEL-28 melanoma
K-562 leukemia = system: K-562 leukemia
PC-3 prostate = system: PC-3 prostate
EKVX NSCLC = system: EKVX NSCLC
NCI-H23 lung = system: NCI-H23 lung
SR leukemia = system: SR leukemia
ACHN renal = system: ACHN renal
NCI-H226 lung = system: NCI-H226 lung
OVCAR-5 ovarian = system: OVCAR-5 ovarian
KM12 colon = system: KM12 colon
NCI-H522 lung = system: NCI-H522 lung
HOP-62 NSCLC = system: HOP-62 NSCLC
MDA-MB-435 = system: MDA-MB-435
HT29 colon = system: HT29 colon
OVCAR-3 ovarian = system: OVCAR-3 ovarian
HOP-92 NSCLC = system: HOP-92 NSCLC
TK-10 renal = system: TK-10 renal
SK-OV-3 ovarian = system: SK-OV-3 ovarian
HL-60(TB) leukemia = system: HL-60(TB) leukemia
UACC-257 melanoma = system: UACC-257 melanoma
A498 renal = system: A498 renal
CAKI-1 renal = system: CAKI-1 renal
CCRF-CEM leukemia = system: CCRF-CEM leukemia
SF-539 CNS = system: SF-539 CNS
RXF 393 renal = system: RXF 393 renal

COc1cc(/C=C/C(=O)OC[C@]23O[C@H]2[C@@H](OC2OC(C)C(O)C(O)C2O)C2C=CO[C@@H](OC4OC(CO)C(O)C(O)C4O)C23)ccc1O (stereo partly drawn)
TGI (MALME-3M melanoma): > 100 µM
TGI (MOLT-4 leukemia): > 100 µM
TGI (U251 CNS): > 100 µM
TGI (SF-295 CNS): > 100000 nM
TGI (SK-MEL-5 melanoma): > 100 µM
TGI (SN12C renal): > 100 µM
TGI (M14 melanoma): > 100 µM
TGI (SW-620 colon): > 100 µM
TGI (MDA-MB-231 breast): > 100 µM
TGI (SF-268 CNS): > 100 µM
TGI (HS 578T breast): > 100 µM
TGI (NCI-H460 lung): > 100 µM
TGI (DU-145 prostate): > 100 µM
TGI (RPMI-8226 leukemia): > 100 µM
TGI (SNB-19 CNS): > 100 µM
TGI (NCI/ADR-RES ovarian): > 100 µM
TGI (HCT-15 colon): > 100 µM
TGI (LOX IMVI melanoma): > 100 µM
TGI (OVCAR-8 ovarian): > 100 µM
TGI (A549 NSCLC): > 100 µM
TGI (HCT-116 colon): > 100 µM
TGI (HCC-2998 colon): > 100 µM
TGI (MDA-N): > 100 µM
TGI (COLO 205 colon): > 100 µM
TGI (T-47D breast): > 100 µM
TGI (SK-MEL-2 melanoma): > 100 µM
TGI (UACC-62 melanoma): > 100 µM
TGI (MCF7 breast): > 100 µM
TGI (UO-31 renal): > 100 µM
TGI (BT-549 breast): > 100 µM
TGI (OVCAR-4 ovarian): > 100 µM
TGI (786-0 renal): > 100 µM
TGI (IGROV1 ovarian): > 100 µM
TGI (SNB-75 CNS): > 100000 nM
TGI (SK-MEL-28 melanoma): > 100 µM
TGI (K-562 leukemia): > 100 µM
TGI (PC-3 prostate): > 100 µM
TGI (EKVX NSCLC): > 100 µM
TGI (NCI-H23 lung): > 100 µM
TGI (SR leukemia): > 100 µM
TGI (ACHN renal): > 100 µM
TGI (NCI-H226 lung): > 100 µM
TGI (OVCAR-5 ovarian): > 100 µM
TGI (KM12 colon): > 100 µM
TGI (NCI-H522 lung): > 100 µM
TGI (HOP-62 NSCLC): > 100 µM
TGI (MDA-MB-435): > 100 µM
TGI (HT29 colon): > 100 µM
TGI (OVCAR-3 ovarian): > 100 µM
TGI (HOP-92 NSCLC): > 100 µM
TGI (TK-10 renal): > 100 µM
TGI (SK-OV-3 ovarian): > 100 µM
TGI (HL-60(TB) leukemia): > 100000 nM

CSc1nc(NC2CC2)c2c(n1)Sc1nc3ccccc3n1N=C2
TGI (MALME-3M melanoma): 50.9 µM
TGI (UACC-257 melanoma): > 100 µM
TGI (A498 renal): 60.8 µM
TGI (CAKI-1 renal): > 100 µM
TGI (MOLT-4 leukemia): > 100 µM
TGI (U251 CNS): 61.8 µM
TGI (CCRF-CEM leukemia): > 100 µM
TGI (SF-539 CNS): 27.4 µM
TGI (SK-MEL-5 melanoma): 49.5 µM
TGI (SN12C renal): 33.4 µM
TGI (M14 melanoma): > 100 µM
TGI (SW-620 colon): > 100 µM
TGI (MDA-MB-231 breast): 48.9 µM
TGI (SF-268 CNS): 80.7 µM
TGI (HS 578T breast): 24.2 µM
TGI (NCI-H460 lung): > 100 µM
TGI (DU-145 prostate): 46.1 µM
TGI (SNB-19 CNS): 72.5 µM
TGI (NCI/ADR-RES ovarian): 69.7 µM
TGI (HCT-15 colon): > 100 µM
TGI (LOX IMVI melanoma): > 100 µM
TGI (OVCAR-8 ovarian): 85.3 µM
TGI (A549 NSCLC): 97 µM
TGI (HCT-116 colon): 27.4 µM
TGI (HCC-2998 colon): > 100 µM
TGI (MDA-N): > 100 µM
TGI (COLO 205 colon): > 100 µM
TGI (SK-MEL-2 melanoma): 82.4 µM
TGI (UACC-62 melanoma): 76.9 µM
TGI (MCF7 breast): 96.2 µM
TGI (UO-31 renal): 44.4 µM
TGI (BT-549 breast): > 100 µM
TGI (OVCAR-4 ovarian): 55.8 µM
TGI (786-0 renal): 21 µM
TGI (IGROV1 ovarian): > 100 µM
TGI (SK-MEL-28 melanoma): > 100 µM
TGI (K-562 leukemia): > 100 µM
TGI (PC-3 prostate): > 100 µM
TGI (EKVX NSCLC): 98.7 µM
TGI (NCI-H23 lung): > 100 µM
TGI (SR leukemia): > 100 µM
TGI (ACHN renal): 31.1 µM
TGI (NCI-H226 lung): 54.6 µM
TGI (OVCAR-5 ovarian): > 100 µM
TGI (KM12 colon): > 100 µM
TGI (NCI-H522 lung): > 100 µM
TGI (HOP-62 NSCLC): 39.6 µM
TGI (MDA-MB-435): > 100 µM
TGI (HT29 colon): > 100 µM
TGI (OVCAR-3 ovarian): 40.3 µM
TGI (HOP-92 NSCLC): 73.9 µM
TGI (TK-10 renal): 62.4 µM
TGI (SK-OV-3 ovarian): 45.9 µM

O=c1[nH]/c(=C/c2cccs2)c(=O)[nH]/c1=C/c1ccc(OCc2ccccc2)cn1
TGI (RXF 393 renal): 3.88 µM
TGI (MALME-3M melanoma): 0.726 µM
TGI (UACC-257 melanoma): > 75 µM
TGI (A498 renal): 1.15 µM
TGI (CAKI-1 renal): 8.35 µM
TGI (MOLT-4 leukemia): > 35.8 µM
TGI (U251 CNS): 23.8 µM
TGI (CCRF-CEM leukemia): 4.34 µM
TGI (SF-539 CNS): 12.5 µM
TGI (SF-295 CNS): 119 nM
TGI (SK-MEL-5 melanoma): > 62.6 µM
TGI (SN12C renal): > 100 µM
TGI (M14 melanoma): 0.0381 µM
TGI (SW-620 colon): > 100 µM
TGI (MDA-MB-231 breast): > 48.9 µM
TGI (SF-268 CNS): > 36.3 µM
TGI (HS 578T breast): 0.204 µM
TGI (NCI-H460 lung): 3.46 µM
TGI (DU-145 prostate): 5.04 µM
TGI (RPMI-8226 leukemia): > 43.2 µM
TGI (SNB-19 CNS): > 46.2 µM
TGI (NCI/ADR-RES ovarian): 0.475 µM
TGI (HCT-15 colon): 28.8 µM
TGI (LOX IMVI melanoma): > 100 µM
TGI (OVCAR-8 ovarian): 65.4 µM
TGI (A549 NSCLC): > 55.9 µM
TGI (HCT-116 colon): > 100 µM
TGI (HCC-2998 colon): 0.853 µM
TGI (MDA-N): 0.0766 µM
TGI (COLO 205 colon): 12.5 µM
TGI (SK-MEL-2 melanoma): > 52.2 µM
TGI (UACC-62 melanoma): 40.3 µM
TGI (MCF7 breast): 39.6 µM
TGI (UO-31 renal): > 100 µM
TGI (BT-549 breast): 3.75 µM
TGI (OVCAR-4 ovarian): 45.5 µM
TGI (786-0 renal): 25.6 µM
TGI (IGROV1 ovarian): > 100 µM
TGI (SNB-75 CNS): 2660 nM
TGI (SK-MEL-28 melanoma): > 100 µM
TGI (K-562 leukemia): 27.4 µM
TGI (PC-3 prostate): > 44.4 µM
TGI (EKVX NSCLC): > 100 µM
TGI (NCI-H23 lung): 1.7 µM
TGI (SR leukemia): 0.587 µM
TGI (ACHN renal): > 100 µM
TGI (NCI-H226 lung): 33.3 µM
TGI (OVCAR-5 ovarian): > 69.5 µM
TGI (KM12 colon): 26.3 µM
TGI (NCI-H522 lung): 0.0998 µM
TGI (HOP-62 NSCLC): 8.47 µM
TGI (MDA-MB-435): 0.0182 µM
TGI (HT29 colon): > 100 µM
TGI (OVCAR-3 ovarian): 0.0382 µM
TGI (TK-10 renal): 27.4 µM
TGI (SK-OV-3 ovarian): 16.1 µM
TGI (HL-60(TB) leukemia): 244 nM
